Experiments:
Bacillus subtilis = assay: Antibacterial activity against Bacillus subtilis ATCC 43223; format: functional
Staphylococcus aureus = assay: Antibacterial activity against Staphylococcus aureus ATCC 29213; format: functional

C=C[C@@]1(C)CC=C2[C@@H](CC[C@@H]3C(C)(C)[C@H](OC(=O)C(=O)N(O)C(C)=O)CC[C@@]23C)C1 [OXALOTERPIN A] gave an IC (Bacillus subtilis) of 1.9 nmol/mL and an IC (Staphylococcus aureus) of 3.7 nmol/mL.

From ChEMBL document CHEMBL1141339, “Studies on terpenoids produced by actinomycetes: oxaloterpins A, B, C, D, and E, diterpenes from Streptomyces sp. KO-3988” (2007)
